Test results published in patent publication US10654837B2, “Sulphamoylaryl derivatives and use thereof as medicaments for the treatment of liver fibrosis” (Janssen Pharmaceutica NV, priority 2017, dated 2020).
pIC50: −log10 of the molar value.

The compounds below were run against T1, 5HTR2B (Homo sapiens, UniProt P41595) (assay: 5HTR2B antagonist activity, calcium mobilization assay in human Maverick/293 cells (serotonin as agonist)). Details: intracellular calcium, emission 525 nm, read-out: Ca assay IC50.
T1 construct: host or cells: human Maverick/293 cells
T1 sequence (P41595 whole entry): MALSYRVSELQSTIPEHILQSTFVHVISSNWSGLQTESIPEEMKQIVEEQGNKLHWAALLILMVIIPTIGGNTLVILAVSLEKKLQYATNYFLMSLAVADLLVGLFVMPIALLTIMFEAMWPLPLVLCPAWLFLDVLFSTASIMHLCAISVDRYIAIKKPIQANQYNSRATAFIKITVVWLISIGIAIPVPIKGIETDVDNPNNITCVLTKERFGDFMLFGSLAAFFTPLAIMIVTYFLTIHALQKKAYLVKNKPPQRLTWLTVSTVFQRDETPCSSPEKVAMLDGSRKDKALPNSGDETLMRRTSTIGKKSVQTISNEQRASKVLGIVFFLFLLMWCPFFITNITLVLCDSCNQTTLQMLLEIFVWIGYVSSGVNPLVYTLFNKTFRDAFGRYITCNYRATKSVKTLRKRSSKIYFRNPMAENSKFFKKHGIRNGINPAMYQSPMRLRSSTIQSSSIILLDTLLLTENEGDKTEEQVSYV
Assay type: cell-based
Method: The 5HTR2B antagonist activity was measured using human Maverick/293 cells in a calcium mobilization assay. The measurement starting with plating human Maverick/293 cells (log phase) onto 96-well black and incubate at 37° C. overnight, Followed by starving cells for 2 h by changing complete medium to DMEM without FBS, removing the medium from the 96-well plate. Loading staining calcium buffer into each well and incubated the plate at 37° C. for 50 min. After removal of staining calcium buffer, diluted antagonist were added into the well, incubate 15 to 30 minutes. Dispense serotonin as the 5HTR2B agonists into each well. Intracellular calcium concentration is recorded for 80 seconds by monitoring an emission at a wavelength of 525 nm with an excitation wavelength of 485 nm. Inhibition efficiency of the cell line was determined following the equation: % Inhibition=100%−(D−B)/(S−B)*100%. (S: The peak value in the presence of agonist serotonin; D: The peak value in the presence of different dilution compound or serotonin; B: The peak value in the presence of calcium HBSS buffer only). […] A dose response curve was fitted using nonlinear regression model with a sigmoidal dose response. The IC50 was automatically produced by GraphPad Prism 5.0.

Structure (SMILES) | pIC50
COc1ccc(S(=O)(=O)NC(C)CC#N)cc1C(=O)Nc1ccc(F)c(C)c1 (single isomer, unassigned) [Compound 11a, (S*)-5-(N-(1-Cyanopropan-2-yl)sulfamoyl)-N-(4-fluoro-3-methylphenyl)-2-methoxybenzamide] | 7.17
COc1ccc(S(=O)(=O)N[C@H](C)CC#N)cc1C(=O)Nc1ccc(F)c(C)c1 (single isomer, unassigned) [Compound 11b, (R*)-5-(N-(1-Cyanopropan-2-yl)sulfamoyl)-N-(4-fluoro-3-methylphenyl-2-methoxybenzamide] | 8.29
COc1ccc(S(=O)(=O)N[C@@H]2CC[C@H](O)C2)cc1C(=O)Nc1ccc(F)c(C)c1 (single isomer, unassigned) [Compound 15b, N-(4-Fluoro-3-methylphenyl)-5-(N-((cis)-3-hydroxycyclopentyl)sulfamoyl)-2-methoxybenzamide] | 9.00
COc1ccc(S(=O)(=O)NC2CCCOC2)cc1C(=O)Nc1ccc(F)c(C)n1 (single isomer, unassigned) [Compound 16a, (S*)—N-(5-Fluoro-6-methylpyridin-2-yl)-2-methoxy-5-(N-(tetrahydro-2H-pyran-3-yl)sulfamoyl)benzamide] | 8.96
COc1ccc(S(=O)(=O)NC2CCCOC2)cc1C(=O)Nc1ccc(F)c(C)n1 (single isomer, unassigned) [Compound 16b, (R*)—N-(5-Fluoro-6-methylpyridin-2-yl)-2-methoxy-5-(N-(tetrahydro-2H-pyran-3-yl)sulfamoyl)benzamide] | 8.04
COc1ccc(S(=O)(=O)NCC(O)C(F)(F)F)cc1C(=O)Nc1ccc(F)c(C)n1 (single isomer, unassigned) [Compound 23a, (R*)—N-(5-fluoro-6-methylpyridin-2-yl)-2-methoxy-5-(N-(3,3,3-trifluoro-2-hydroxypropyl)sulfamoyl)benzamide] | 8.33
COc1ccc(S(=O)(=O)NCC(O)C(F)(F)F)cc1C(=O)Nc1ccc(F)c(C)n1 (single isomer, unassigned) [Compound 23b, (S*)—N-(5-fluoro-6-methylpyridin-2-yl)-2-methoxy-5-(N-(3,3,3-trifluoro-2-hydroxypropyl)sulfamoyl)benzamide] | 8.30
COc1ccc(S(=O)(=O)NC(C)C(F)(F)F)cc1C(=O)Nc1ccc(F)c(C)n1 (single isomer, unassigned) [Compound 29a, (S*)—N-(5-Fluoro-6-methylpyridin-2-yl)-2-methoxy-5-(N-(1,1,1-trifluoropropan-2-yl)sulfamoyl)benzamide] | 8.52
COc1ccc(S(=O)(=O)NC(C)C(F)(F)F)cc1C(=O)Nc1ccc(F)c(C)n1 (single isomer, unassigned) [Compound 29b, (R*)—N-(5-Fluoro-6-methylpyridin-2-yl)-2-methoxy-5-(N-(1,1,1-trifluoropropan-2-yl)sulfamoyl)benzamide] | 8.34
COCC(C)NS(=O)(=O)c1ccc(OC)c(C(=O)Nc2ccc(F)c(C(F)F)c2)c1 (single isomer, unassigned) [Compound 32a, (R*)—N-(3-(Difluoromethyl)-4-fluorophenyl)-2-methoxy-5-(N-(1-methoxypropan-2-yl)sulfamoyl)benzamide] | 8.74
COCC(C)NS(=O)(=O)c1ccc(OC)c(C(=O)Nc2ccc(F)c(C(F)F)c2)c1 (single isomer, unassigned) [Compound 32b, (S*)—N-(3-(Difluoromethyl)-4-fluorophenyl)-2-methoxy-5-(N-(1-methoxypropan-2-yl)sulfamoyl)benzamide] | 8.07
COc1ccc(S(=O)(=O)N[C@@H]2CC[C@H](O)C2)cc1C(=O)Nc1ccc(F)c(C(F)F)c1 (single isomer, unassigned) [Compound 33a, N-(3-(Difluoromethyl)-4-fluorophenyl)-5-(N-((cis)-3-hydroxycyclopentyl)sulfamoyl)-2-methoxybenzamide] | 9.40
